Measured values reported in US4073918A, “Phenoxyalkylcarboxylic acid amides of substituted thiazolidinecarboxylic acids and their utilization in medicaments” (Ludwig Merckle KG, priority 1974, dated 1978).

Assays:
normal lipemic CFY-rat = assay: Normolipemic test (serum cholesterol and triglycerides); type: in vivo; conditions: 14 days; for Serum Cholesterol / Serum Triglycerides: 24 h after last administration; for Serum Cholesterol, Lowering % / Serum Triglycerides, Lowering %: vs control
Description: (§1) In contrast therewith, the inventive compounds having the general formula (I) show based on the normal lipemic as well as the hypercholesteremic rat models, a distinct anti-lipemic and, in particular anti-cholesteremic effect. […] This activity loss of clofibrate on the hyperlipemic demands is also found a number of times in the literature. The antilipemic activity of the inventive compounds, as well as that of clofibrate as the reference substance, was determined on a normal lipemic CFY-rat during an examination time period of 14 days. During this time, the animals received a normal laboratory diet. (Spratt's No. 1).
(§2) After a 4-day acclimatization period the animals orally received the test compound as a suspension in 1% tragacanth-solution, or the vehicle alone (control group). The control-group consisted of 20 animals, while the test groups contained 10 animals. 24 hours after the last administration, blood samples were taken for determining the serum triglycerides and serum cholesterol level.

hypercholesteremic rat = assay: Hypercholesteremic test (serum cholesterol and triglycerides); type: in vivo; conditions: for Serum Cholesterol / Serum Triglycerides: hypercholesteremic rat (2% cholesterol, 1% cholic acid diet); for Serum Cholesterol, Lowering % / Serum Triglycerides, Lowering %: hypercholesteremic rat, vs control
Description: as §1, §2
The hypercholesteremic test was carried out on the same animals and under the same examining conditions, as was carried out in the normal lipemic test. The animals received a normal laboratory diet (Spratt's No. 2), having added thereto 2% cholesterol and 1% cholic acid.

laboratory rats [1] = conditions: Literature reference; 20160 min; cited from earlier work
[2] = test system: galactosamine-hepatitis-model; conditions: Arzneimittel-Forschung 23, 56, 1973, cited from earlier work
[3] = in vivo; cited from earlier work
[4] = Pharmacological screening for 51 pharmacological parameters; type: in vivo
[5] = Acute oral toxicity (LD50, Litchfield and Wilcoxon); type: in vivo; conditions: in vivo, rat, suspension in 0.5% aqueous Tween 80, observation 14 days
Description: (§3) The acute oral toxicity of the inventive compounds of Examples 18 and 23 was tested on, respectively, five male and female laboratory rats each having a weight of 200 ± 20g. The compounds tested were prepared as suspension in 0.5 %-aqueous Tween 80-solution. The observation time period was 14 days. The determination of the LD50 -values was carried out pursuant to the methods of Litchfield and Wilcoxon.

mouse = assay: Pharmacological screening, abdominal tone in the mouse; type: in vivo; conditions: 100 mg/kg intraperitoneal
laboratory rats [6] = assay: Acute oral toxicity (LD50, Litchfield and Wilcoxon); type: in vivo; conditions: rat, 14 days, Litchfield and Wilcoxon
Description: as §3

Compound	Serum Cholesterol (normal lipemic CFY-rat; 300 mg/kg oral)	Serum Triglycerides (normal lipemic CFY-rat; 300 mg/kg oral)	Serum Cholesterol, Lowering % (normal lipemic CFY-rat; 300 mg/kg oral)	Serum Triglycerides, Lowering % (normal lipemic CFY-rat; 300 mg/kg oral)	Serum Cholesterol (hypercholesteremic rat; 300 mg/kg oral)	Serum Triglycerides (hypercholesteremic rat; 300 mg/kg oral)	Serum Cholesterol, Lowering % (hypercholesteremic rat; 300 mg/kg oral)	Serum Cholesterol (normal lipemic CFY-rat; 100 mg/kg oral)	Serum Triglycerides (normal lipemic CFY-rat; 100 mg/kg oral)	Serum Triglycerides, Lowering % (normal lipemic CFY-rat; 100 mg/kg oral)	Serum Cholesterol (hypercholesteremic rat; 100 mg/kg oral)	Serum Triglycerides (hypercholesteremic rat; 100 mg/kg oral)	side effects in pharmacological screening [4]	Serum Cholesterol, Lowering % (hypercholesteremic rat; 100 mg/kg oral)	other results
CCOC(=O)C(C)(C)Oc1ccc(Cl)cc1 [Clofibrate, 2-(p-chlorophenoxy)-2-methylpropionic acid ethyl ester, reference compound]	56.1 mg %	66.5 mg %	27.0%	46.3%	347.9 mg %	75.6 mg %	3.0%								activity on the hypercholesteremic models (in words) (hypercholesteremic rat; hypercholesteremic models): shows no more activity; Serum Triglycerides, Lowering % (hypercholesteremic rat; 300 mg/kg oral): 12.5%; LD50 (laboratory rats [1]): ~1200 mg/kg
CC(C)(S)[C@@H](N)C(=O)O [D-penicillamine]															influence on lipid material exchange (in words) [2]: satisfactory influence on lipid material exchange; liver protective effect; release of SH-groups, stimulation of nucleic acids and protein synthesis (in words) ([2]; galactosamine-hepatitis-model): These properties are also shown by D-penicillamine; known side effects [3]: allergic reactions, leukopenia or gastrointestinal disturbances
CC(C)(Oc1ccc(Cl)cc1)C(=O)NCC1NC(C(=O)O)C(C)(C)S1 (centres unmarked) [Example 17]	81.5 mg %	91.2 mg %	13.1%		296.1 mg %	96.4 mg %	7.2%	81.8 mg %	77.3 mg %	11.2%	353.8 mg %	85.0 mg %	no special side effects were seen		Serum Cholesterol, Lowering % (normal lipemic CFY-rat; 100 mg/kg oral): 12.8%; Serum Triglycerides, Lowering % (hypercholesteremic rat; 100 mg/kg oral): 1.2%
CC(Oc1ccc(Cl)cc1)C(=O)N1C(C(=O)O)C(C)(C)SC1(C)C (centres unmarked) [Example 18, 2,2,5,5-tetramethyl-3-2-(p-chlorophenoxy)propionyl!-thiazolidine-4-carboxylic acid]	95.3 mg %	82.5 mg %		12.6%	470.3 mg %	72.4 mg %	20.5%	95.8 mg %	68.7 mg %	27.2%	412.9 mg %	71.4 mg %	no special side effects were seen	30.2%	LD50 at 336 h [5]: > 5000 mg/kg; abdominal tone (mouse): a small reduction of the abdominal tone was observed
CC(C)(Oc1ccc(Cl)cc1)C(=O)N1C(C(=O)O)C(C)(C)SC1(C)C (centres unmarked) [Example 19]	82.0 mg %	72.7 mg %	4.9%	23.0%	595.6 mg %	66.0 mg %		93.1 mg %	75.2 mg %	20.3%	549.1 mg %	65.9 mg %		7.1%	
CC1(C)SC(C)(C)N(C(=O)COc2ccc(Cl)cc2)C1C(=O)O (centres unmarked) [Example 20, 2,2,5,5-tetramethyl-3-(p-chlorophenoxyacetyl)-thiazolidine-4-carboxylic acid]	73.0 mg %	66.0 mg %	15.3%	30.1%	479.6 mg %	92.2 mg %	18.9%	87.8 mg %	67.6 mg %	28.4%	503.9 mg %	88.1 mg %		14.8%	
CC(C)(Oc1ccc(Cl)cc1)C(=O)NCC1SC(C)(C)C(C(=O)O)N1C(=O)COc1ccc(Cl)cc1 (centres unmarked) [Example 21, 2-2-(p-chlorophenoxy)-2-methyl-propionylamidomethyl!-5,5-dimethyl-3-(p-chlorophenoxyacetyl)-thilazolidine-4-carboxylic acid]	90.8 mg %	72.4 mg %	5.9%		465.1 mg %	41.3 mg %		89.4 mg %	59.1 mg %	11.4%	501.2 mg %	51.0 mg %	no special side effects were seen		Serum Cholesterol, Lowering % (normal lipemic CFY-rat; 100 mg/kg oral): 7.3%; Serum Triglycerides, Lowering % (hypercholesteremic rat; 100 mg/kg oral): 5.9%; Serum Triglycerides, Lowering % (hypercholesteremic rat; 300 mg/kg oral): 23.9%
CC1(C)SC2(CCCCC2)N(C(=O)COc2ccc(Cl)cc2)C1C(=O)O (centres unmarked) [Example 23]															LD50 at 336 h [5]: 4350 mg/kg; Effective limits (of LD50) (laboratory rats [6]): 3680 to 5130 mg/kg
